Laboratory results as given in patent publication US7514251B2, “O-methyltransferases of tetrahydrobenzylisoquinoline alkaloid biosynthesis in Papaver somniferum” (priority 2003, dated 2009).
Where two headings read alike, the source gives them in different places. Marks after values point to notes of the source that are not given here.

Columns and labels:
Type in all cases: biochemical
[1] = target: T1, PSOMT1 ((R,S)-reticuline 7-O-methyltransferase) (Papaver somniferum, UniProt Q6WUC2); assay: HPLC-MS identification of enzymic products of PSOMT1; details: for position of O-methylation by PSOMT1: HPLC-MS of enzymic product
T1 construct: The full-length cDNA generated by RT-PCR was ligated into pFastBac HTa; His6 (N); made in house; host or cells: Spodoptera frugiperda Sf9 (baculovirus, pFastBac HTa)
T1 sequence (Q6WUC2 whole entry): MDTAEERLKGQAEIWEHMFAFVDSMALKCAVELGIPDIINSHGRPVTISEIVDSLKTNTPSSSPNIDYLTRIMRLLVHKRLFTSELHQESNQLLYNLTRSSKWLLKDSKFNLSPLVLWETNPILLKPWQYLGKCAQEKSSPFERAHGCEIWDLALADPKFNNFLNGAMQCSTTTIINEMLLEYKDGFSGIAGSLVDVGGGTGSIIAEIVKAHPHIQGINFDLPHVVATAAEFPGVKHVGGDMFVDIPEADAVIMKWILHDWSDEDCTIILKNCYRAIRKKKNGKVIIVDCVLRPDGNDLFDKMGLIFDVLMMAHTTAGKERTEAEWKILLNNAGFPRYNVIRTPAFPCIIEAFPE
Experimental: (§1) The identity of the enzymic reaction products was ascertained by HPLC-MS using a Finnigan MAT TSQ 7000 (electrospray voltage 4.5 kV, capillary temperature 220° C., carrier gas N2) coupled to a Micro-tech Ultra-Plus Micro-LC equipped with an Ultrasep RP18 column; 5 μm; 1×10 mm), Solvent system (A) 99.8% (v/v) H2O, 0.2% HOAc (B) 99.8% CH3CN (v/v), 0.2% HOAc; gradient: 0-15 min 10-90% B, 15-25 min 90% B; flow 70 μl min^−1). The collision-induced dissociation (CID; collision energy, −25 eV; collision gas, argon; collision pressure, 1.8×10^−3 Torr) mass spectra for the tetrahydrobenzylisoquinoline alkaloids were recorded.
(§2) Structure Elucidation of Enzymic Products—Initial enzyme activity measurements were carried out using a radioassay. Many of the substrates tested contained more than one site of potential methylation. […] Tetrahydrobenzylisoquinolines readily cleave at low ionization energies into the corresponding isoquinoline- and benzyl ions. This enables identification of methylation at either moiety. Each alkaloidal substrate was monitored for purity by HLPC-MS and the fragmentation pattern was determined. Enzymic product fragmentation patterns were then compared to those of substrate. All substrates were methylated by either PSOMT1 or PSOMT2 on the isoquinoline moiety. For example, (R)- or (S)-reticuline ([M+H]^+ m/z 330) has the major fragment ions m/z 192 (isoquinoline) and m/z 137 (benzyl). The methylation of (R)- or (S)-reticuline by PSOMT1 results in a product of [M+H]^+ m/z 344 (methylated (R)- or (S)-reticuline) with fragment ions at m/z 206 (isoquinoline+CH2) and m/z 137 (unmodified benzyl). Likewise, (R,S)-norcoclaurine ([M+H]^+ m/z 272) has the major fragment ions m/z 161 (isoquinoline) and m/z 107 (benzyl). The methylation of (R,S)-norcoclaurine by PSOMT2 results in a product of [M+H]^+ m/z 286 (methylated (R,S)-norcoclaurine) with fragment ions at m/z 175 (isoquinoline+CH2) and m/z 107 (unmodified benzyl).

[2] = target: T2, PSOMT2 ((R,S)-norcoclaurine 6-O-methyltransferase) (Papaver somniferum, UniProt Q6WUC1); assay: Radioassay of recombinant PSOMT2 with [methyl-3H]-AdoMet (substrate specificity, kinetics, pH and temperature optima); details: for Substrate specificity, relative activity of PSOMT2: 100% activity = 2.0 pmoles/sec/mg total protein, radioassay; for Vmax Substrate / kcat Substrate / kcat/Km ratio relative to that obtained for (R,S)-norcoclaurine / pH optimum of methyl transfer / Km: PSOMT2; for methylated by PSOMT2 (radioassay, in words): one of forty substrates tested
T2 construct: The full-length cDNA generated by RT-PCR was ligated into pFastBac HTa; His6 (N); made in house; host or cells: Spodoptera frugiperda Sf9 (baculovirus, pFastBac HTa)
T2 sequence (Q6WUC1 1-346): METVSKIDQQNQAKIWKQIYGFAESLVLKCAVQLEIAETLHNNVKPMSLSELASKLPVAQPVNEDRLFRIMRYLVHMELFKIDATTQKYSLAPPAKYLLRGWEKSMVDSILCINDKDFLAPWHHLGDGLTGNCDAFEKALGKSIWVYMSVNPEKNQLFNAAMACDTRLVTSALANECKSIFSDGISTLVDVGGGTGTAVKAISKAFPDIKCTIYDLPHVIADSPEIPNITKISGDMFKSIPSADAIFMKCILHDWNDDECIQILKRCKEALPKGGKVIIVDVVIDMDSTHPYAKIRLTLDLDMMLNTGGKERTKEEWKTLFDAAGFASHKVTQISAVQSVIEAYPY
From the text: (§3) Heterologous Expression and Enzyme Purification—The full-length cDNA generated by RT-PCR was ligated into pFastBac HTa that had been digested with restriction endonucleases BamHI and NotI. The recombinant plasmid was transposed into baculovirus DNA in the Escherichia coli strain DH10BAC (Life Technologies) and then transfected into Spodoptera frugiperda Sf9 cells according to the manufacturer's instructions. The insect cells were propagated and the recombinant virus was amplified according to (16,17). INSECT-XPRESS serum-free medium (Bio Whittaker) was used in the enzyme expression experiments.
(§4) After infection of 20 ml suspension grown insect cells had proceded for 3-4 days at 28° C. and 130 rpm, the cells were removed by centrifugation under sterile conditions at 900× g for 5 min at 4° C. All subsequent steps were performed at 4° C. The pellet was discarded and to the medium was added 0.73 g NaCl, 2.5 ml glycerol and 50 μl […]-mercaptoethanol. The pH was adjusted to 7.0 with 1.0 M NaOH. The His-tagged O-methyltransferase was then purified by affinity chromatography using a cobalt resin (Talon, Clontech) according to the manufacturer's instructions.
(§5) Enzyme assay and product identification: The O-methylation reactions catalysed by the two O-methyltransferases were assayed at least two times in duplicate according to Rüffer et al. (1983a; 1983b) as follows. Substrate (25 nmol), [methyl-3H]-AdoMet (20,000 dpm, 0.4 fmol), AdoMet (10 nmol) Tris/HC1 buffer pH 8.0 (10 μmol), ascorbate (5 μmol) and 5-10 μg of enzyme were incubated in a total volume of 150 μl at 35° C. for 5-60 min. The enzymic reaction was terminated by addition of 200 μl ethylacetate. The organic phase ([…]) was added to 3 ml high flash point liquid scintillation cocktail (Packard) and the radioactivity quantified with a Beckman LS6000TA liquid scintillation counter.
(§6) General Methods—Total RNA was isolated and RNA gels were run and blotted as described previously (20). Genomic DNA was isolated and DNA gels were run and blotted according to (21). cDNA clones were labeled by PCR labeling with [[…]-^32P]dATP. Hybridized RNA on RNA gel blots and DNA on DNA gel blots were visualized with a STORM phosphor imager (Molecular Dynamics). The entire nucleotide sequence on both DNA strands of the full-length clone was determined by dideoxy cycle sequencing using internal DNA sequences for the design of deoxyoligonucleotides as sequencing primers. Saturation curves and double reciprocal plots were constructed with the Fig. P program Version 2.7 (Biosoft, Cambridge, UK). The influence of pH on enzyme activity was monitored in sodium citrate (pH 4-6), sodium phosphate (pH 6-7.0) and Tris-HCl (pH 7.0-9), glycine/NaOH (pH 9-10.5) buffered solutions.

[3] = target: T1, PSOMT1 ((R,S)-reticuline 7-O-methyltransferase); details: for Substrate specificity, relative activity of PSOMT1: 100% activity = 1.5 pmoles/sec/mg total protein, radioassay; for methylated by PSOMT1 (radioassay, in words): one of forty substrates tested
From the text: as §3, §4, §5, §6

[4] = target: T2, PSOMT2 ((R,S)-norcoclaurine 6-O-methyltransferase); assay: HPLC-MS identification of enzymic products of PSOMT2; details: HPLC-MS of enzymic product
Experimental: as §1, §2

[5] = co-substrate AdoMet with the named substrate, read-out: Km AdoMet
[6] = PSOMT1, co-substrate AdoMet with the named substrate, read-out: Km AdoMet

SMILES | position of O-methylation by PSOMT1 [1] | Substrate specificity, relative activity of PSOMT2 [2] [%] | Substrate specificity, relative activity of PSOMT1 [3] | methylated by PSOMT1 (radioassay, in words) [3] | Vmax Substrate ([3]; PSOMT1) [pmol/s] | kcat Substrate ([3]; PSOMT1) [s⁻¹] | pH optimum of methylation ([3]; PSOMT1) | ratio kcat/Km ([3]; PSOMT1) [M⁻¹ s⁻¹] | temperature optimum ([3]; PSOMT1) [°C] | Km [3, 6] [µM] | Km ([3]; PSOMT1, read-out: Km Substrate) [µM] | other results
COc1cc(C[C@@H]2c3cc(O)c(OC)cc3CCN2C)ccc1O (racemic) [(R,S)-Orientaline] | O-methylated at C-7 | 0 | 48% | methylates |  |  |  |  |  |  |  | share of product that is double methylated 7,4′-O-dimethylorientaline (laudanosine) and monomethylated 4′-O-methylorientaline ([1]; PSOMT1, main product 7-O-methylorientaline): Approximately 1%
COc1ccc(C[C@H]2NCCc3cc(O)c(OC)cc32)cc1O [(R)-Norprotosinomenine] |  | 26 | 0% |  |  |  |  |  |  |  |  | position of O-methylation by PSOMT2 [4]: at C-6; Vmax Substrate [2]: 1 pmol/s; kcat Substrate [2]: 0.02 s⁻¹; kcat/Km ratio relative to that obtained for (R,S)-norcoclaurine [2]: 55%; pH optimum of methyl transfer [2]: 7.5; Km [2, 5]: 200 µM; Km ([2]; read-out: Km Substrate): 5 µM; methylated by PSOMT2 (radioassay, in words) [2]: methylating
COc1ccc(C[C@@H]2c3cc(OC)c(O)cc3CCN2C)cc1O [(R)-Protosinomenine] | O-methylated by PSOMT1 at C-6 | 0 | 52% | methylates | 2 | 0.03 | 9.0 | 1670 | 39 | 320 | 16 | 
COc1ccc(C[C@@H]2c3cc(O)c(OC)cc3CCN2C)cc1O [(R)-Reticuline] | O-methylated at C-7 | 0 | 100^a % | methylates | 4 | 0.07 | 8.0 | 4200 | 37 | 310 | 17 | 
COc1ccc(C[C@@H]2NCCc3cc(O)c(OC)cc32)cc1O [(S)-Norprotosinomenine] |  | 26 | 0% |  |  |  |  |  |  |  |  | position of O-methylation by PSOMT2 [4]: at C-6; Vmax Substrate [2]: 1 pmol/s; kcat Substrate [2]: 0.02 s⁻¹; kcat/Km ratio relative to that obtained for (R,S)-norcoclaurine [2]: 55%; pH optimum of methyl transfer [2]: 7.5; Km [2, 5]: 260 µM; Km ([2]; read-out: Km Substrate): 5 µM; methylated by PSOMT2 (radioassay, in words) [2]: methylating
COc1ccc(C[C@H]2c3cc(O)c(OC)cc3CCN2C)cc1O [(S)-Reticuline] | O-methylated at C-7 | 0 | 100^a % | methylates | 4 | 0.07 | 8.0 | 4500 | 37 | 360 | 16 | 
COc1ccccc1O [Guaiacol] |  | 0 | 242% | methylates | 6 | 0.1 | 8.0 | 5870 | 37 |  |  | kcat/Km ratio relative to the values determined for reticuline ([3]; PSOMT1): 135%; Km ([3]; read-out: Km Substrate, PSOMT1): 17 µM
COc1ccc(C(=O)O)cc1O [Isovanillic acid] |  | 0 | 40% | methylates | 1 | 0.02 | 7.5 | 1210 |  |  |  | Km ([3]; read-out: Km Substrate, PSOMT1): 14 µM
